Data from patent publication US20240279215A1 (Cytokinetics, Incorporated, priority 2022, published 2024).

Target: human NAMPT (Homo sapiens (Human), UniProt P43490)
Assay: NMN fluorescence biochemical assay (human recombinant NAMPT enzyme assay)
Method in brief: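 Activation of recombinant human NAMPT (6 nM) was tested with 2.5 mM ATP, 20 μM PRPP and 150 μM nicotinamide in 50 mM HEPES pH 7.2 for 60 min at ambient temperature. NMN was derivatized with acetophenone/KOH/formic acid and read by fluorescence (355/460 nm) after 40 min.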

Sequence of human NAMPT (P43490 whole entry): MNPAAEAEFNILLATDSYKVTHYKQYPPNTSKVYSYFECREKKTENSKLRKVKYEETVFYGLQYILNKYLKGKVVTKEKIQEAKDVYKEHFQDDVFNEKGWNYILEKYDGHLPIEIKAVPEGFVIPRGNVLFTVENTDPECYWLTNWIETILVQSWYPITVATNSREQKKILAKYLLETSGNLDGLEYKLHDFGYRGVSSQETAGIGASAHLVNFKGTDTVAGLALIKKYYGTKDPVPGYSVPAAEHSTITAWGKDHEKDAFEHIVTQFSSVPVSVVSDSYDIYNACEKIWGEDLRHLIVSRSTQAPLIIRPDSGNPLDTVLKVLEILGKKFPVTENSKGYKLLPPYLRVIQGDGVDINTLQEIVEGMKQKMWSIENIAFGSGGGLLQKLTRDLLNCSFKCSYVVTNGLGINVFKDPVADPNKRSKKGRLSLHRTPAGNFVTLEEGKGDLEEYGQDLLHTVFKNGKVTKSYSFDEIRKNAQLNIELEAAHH

O=C(Nc1ccc(CC2CCN(C3COC3)CC2)cc1)OCc1cnco1 [Compound 80, oxazol-5-ylmethyl (4-((1-(oxetan-3-yl)piperidin-4-yl)methyl)phenyl)carbamate]
AC1.4 Human: 0.66 µM
EC50: 29 µM

CN1CC(=O)NC[C@@H]1c1ccc(NC(=O)OCc2ccc(Cl)cc2F)cc1 [Compound 81, 4-chloro-2-fluorobenzyl (S)-(4-(1-methyl-5-oxopiperazin-2-yl)phenyl)carbamate]
AC1.4 Human: 0.66 µM
EC50: 3.41 µM

CCc1ccc(C(=O)NCc2ccc(NC(=O)OCc3ccc(Cl)cc3)cc2)cn1 [Compound 82, (4-chlorophenyl)methyl N-(4-{[(6-ethylpyridin-3-yl)formamido]methyl}phenyl)carbamate]
AC1.4 Human: 0.66 µM
EC50: 3.9 µM

COc1ccc(COC(=O)Nc2ccc(CN3CCN(c4ccccn4)CC3)cc2)cc1 [Compound 83, (4-methoxyphenyl)methyl N-(4-{[4-(pyridin-2-yl)piperazin-1-yl]methyl}phenyl)carbamate]
AC1.4 Human: 0.66 µM
EC50: 8.11 µM

O=C(Nc1ccc(CN2CCC3(CC3)C2=O)cc1)OCc1ccc(Cl)cc1 [Compound 84, (4-chlorophenyl)methyl N-[4-({4-oxo-5-azaspiro[2.4]heptan-5-yl}methyl)phenyl]carbamate]
AC1.4 Human: 0.66 µM
EC50: 3.12 µM

Cc1ncc(C(=O)N(C)Cc2ccc(NC(=O)OCc3ccc(Cl)cc3)cc2)o1 [Compound 85, (4-chlorophenyl)methyl N-(4-{[N-methyl-1-(2-methyl-1,3-oxazol-5-yl)formamido]methyl}phenyl)carbamate]
AC1.4 Human: 0.67 µM
EC50: 6.38 µM

O=C(Nc1ccc(CN2CCOCC2=O)cc1)OCc1ccc(Cl)cc1 [Compound 86, (4-chlorophenyl)methyl N-{4-[(3-oxomorpholin-4-yl)methyl]phenyl}carbamate]
AC1.4 Human: 0.68 µM
EC50: 6.21 µM

CC(C)C(=O)N1CCC(Cc2ccc(NC(=O)OCc3ccc(Cl)cc3)cc2)CC1 [Compound 87, 4-chlorobenzyl (4-((1-isobutyrylpiperidin-4-yl)methyl)phenyl)carbamate]
AC1.4 Human: 0.68 µM
EC50: 1.75 µM

O=C(Nc1ccc(C2CCN(CC(F)(F)F)CC2)cc1)OCc1cnco1 [Compound 88, 1,3-oxazol-5-ylmethyl N-{4-[1-(2,2,2-trifluoroethyl)piperidin-4-yl]phenyl}]
AC1.4 Human: 0.69 µM
EC50: 37.4 µM

C[C@@H](c1ccc(NC(=O)OCc2ccc(Cl)cc2)cc1)N(C)C(=O)N1CCC1 [Compound 89, 4-chlorobenzyl (S)-(4-(1-(N-methylazetidine-1-carboxamido)ethyl)phenyl)carbamate]
AC1.4 Human: 0.71 µM
EC50: 9.4 µM

COc1cc(C(=O)N(C)Cc2ccc(NC(=O)OCc3ccc(Cl)cc3)cc2)n(C)n1 [Compound 90, (4-chlorophenyl)methyl N-(4-{[1-(5-methoxy-2-methylpyrazol-3-yl)-N-methylformamido]methyl}phenyl)carbamate]
AC1.4 Human: 0.72 µM
EC50: 7.32 µM

CN(Cc1ccc(NC(=O)OCc2ccc(Cl)cc2)cc1)C(=O)c1ccn[nH]1 [Compound 91, (4-chlorophenyl)methyl N-{4-[(N-methyl-1-2H-pyrazol-3-ylformamido)methyl]phenyl}carbamate]
AC1.4 Human: 0.74 µM
EC50: 3.8 µM

COc1cnn(C)c1C(=O)N[C@@H](C)c1ccc(NC(=O)OCc2ccc(Cl)cc2)cc1 [Compound 92, (4-chlorophenyl)methyl N-{4-[(1S)-1-[(4-methoxy-2-methylpyrazol-3-yl)formamido]ethyl]phenyl}carbamate]
AC1.4 Human: 0.75 µM
EC50: 3.22 µM

CC(=O)N1CCC(OCc2ccc(NC(=O)OCc3ccc(Cl)cc3)cc2)CC1 [Compound 93, 4-chlorobenzyl (4-(((1-acetylpiperidin-4-yl)oxy)methyl)phenyl)carbamate]
AC1.4 Human: 0.75 µM
EC50: 6.8 µM

CC(C)Cn1nccc1C(=O)N(C)Cc1ccc(NC(=O)OCc2ccc(Cl)cc2)cc1 [Compound 94, (4-chlorophenyl)methyl N-[4-({N-methyl-1-[2-(2-methylpropyl)pyrazol-3-yl]formamido}methyl)phenyl]carbamate]
AC1.4 Human: 0.75 µM
EC50: 2.36 µM

COc1cc(C(=O)N[C@@H](C)c2ccc(NC(=O)OCc3ccc(Cl)cc3)cc2)n(C)n1 [Compound 95, (4-chlorophenyl)methyl N-(4-[(1S)-1-[(5-methoxy-2-methylpyrazol-3-yl)formamido]ethyl]phenyl}carbamate]
AC1.4 Human: 0.75 µM
EC50: 3.11 µM

C[C@H](NC(=O)N1CCC1)c1ccc(NC(=O)OCc2ccc(Cl)cc2)cc1 [Compound 96]
AC1.4 Human: 0.75 µM
EC50: 3.47 µM

C[C@H](NC(=O)C1CCC(F)(F)C1)c1ccc(NC(=O)OCc2cnco2)cc1 (stereo partly drawn) [Compound 97, 1,3-oxazol-5-ylmethyl N-{4-[(1S)-1-[(3,3-difluorocyclopentyl)formamido]ethyl]phenyl}carbamate]
AC1.4 Human: 0.76 µM
EC50: 23.6 µM

COC(=O)N1CCC(Cc2ccc(NC(=O)OCc3ccc(Cl)cc3)cc2)CC1 [Compound 98, methyl 4-(4-((((4-chlorobenzyl)oxy)carbonyl)amino)benzyl)piperidine-1-carboxylate]
AC1.4 Human: 0.78 µM
EC50: 1.49 µM

O=C(Nc1ccc(Cc2ccncc2)cc1)OCc1cn[nH]c1 [Compound 99, (1H-pyrazol-4-yl)methyl (4-(pyridin-4-ylmethyl)phenyl)carbamate]
AC1.4 Human: 0.79 µM
EC50: 51.2 µM

COc1ccc(C(=O)N[C@@H](C)c2ccc(NC(=O)OCc3ccc(Cl)cc3)cc2)cn1 [Compound 100, (4-chlorophenyl)methyl N-{4-[(1S)-1-[(6-methoxypyridin-3-yl)formamido]ethyl]phenyl}carbamate]
AC1.4 Human: 0.81 µM
EC50: 1.22 µM

CCn1nccc1C(=O)N[C@@H](C)c1ccc(NC(=O)OCc2ccc(Cl)cc2)cc1 [Compound 101, (4-chlorophenyl)methyl N-{4-[(1S)-1-[(2-ethylpyrazol-3-yl)formamido]ethyl]phenyl}carbamate]
AC1.4 Human: 0.82 µM
EC50: 4.14 µM

O=C(Nc1ccc(CC2CCN(C(=O)C3CCC3)CC2)cc1)OCc1ccc(Cl)cc1 [Compound 102, 4-chlorobenzyl (4-((1-(cyclobutanecarbonyl)piperidin-4-yl)methyl)phenyl)carbamate]
AC1.4 Human: 0.82 µM
EC50: 1.89 µM

C[C@H](NC(=O)N1CCCC1)c1ccc(NC(=O)OCc2ccc(Cl)cc2)cc1 [Compound 103, 4-chlorobenzyl (S)-(4-(1-(pyrrolidine-1-carboxamido)ethyl)phenyl)carbamate]
AC1.4 Human: 0.83 µM
EC50: 4.31 µM

Cc1ccc(C(=O)N(C)Cc2ccc(NC(=O)OCc3ccc(Cl)cc3)cc2)cn1 [Compound 104, (4-chlorophenyl)methyl N-(4-{[N-methyl-1-(6-methylpyridin-3-yl)formamido]methyl}phenyl)carbamate]
AC1.4 Human: 0.85 µM
EC50: 5.06 µM

C[C@H](NC(=O)c1ccncc1)c1ccc(NC(=O)OCc2ccc(Cl)cc2)cc1 [Compound 105, (4-chlorophenyl)methyl N-{4-[(1S)-1-(pyridin-4-ylformamido)ethyl]phenyl}carbamate]
AC1.4 Human: 0.85 µM
EC50: 1.94 µM

O=C(Nc1ccc(Cc2ccncc2)cc1)OCc1ccc(CO)cc1 [Compound 106, 4-(hydroxymethyl)benzyl (4-(pyridin-4-ylmethyl)phenyl)carbamate]
AC1.4 Human: 0.86 µM
EC50: 26.4 µM

CS(=O)(=O)N1CCN(Cc2ccc(NC(=O)OCc3ccc(Cl)cc3)cc2)CC1 [Compound 107, (4-chlorophenyl)methyl N-{4-[(4-methanesulfonylpiperazin-1-yl)methyl]phenyl}carbamate]
AC1.4 Human: 0.89 µM
EC50: 10.8 µM

Cc1nocc1C(=O)N(C)Cc1ccc(NC(=O)OCc2ccc(Cl)cc2)cc1 [Compound 108, (4-chlorophenyl)methyl N-(4-{[N-methyl-1-(3-methyl-1,2-oxazol-4-yl)formamido]methyl}phenyl)carbamate]
AC1.4 Human: 0.89 µM
EC50: 8.17 µM

Cc1ncc(C(=O)NCc2ccc(NC(=O)OCc3ccc(Cl)cc3)cc2)cn1 [Compound 109, (4-chlorophenyl)methyl N-(4-{[(2-methylpyrimidin-5-yl)formamido]methyl}phenyl)carbamate]
AC1.4 Human: 0.90 µM
EC50: 4.71 µM

COc1cc(C(=O)N[C@@H](C)c2ccc(NC(=O)OCc3ccc(Cl)cc3)cc2)cnc1C [Compound 110, (4-chlorophenyl)methyl N-{4-[(1S)-1-[(5-methoxy-6-methylpyridin-3-yl)formamido]ethyl]phenyl}carbamate]
AC1.4 Human: 0.91 µM
EC50: 3.46 µM

O=C(Nc1ccc(CC(=O)N2CCCCC2)cc1)OCc1ccc(Cl)cc1 [Compound 111, (4-chlorophenyl)methyl N-{4-[2-oxo-2-(piperidin-1-yl)ethyl]phenyl}carbamate]
AC1.4 Human: 0.91 µM
EC50: 5.33 µM

CN(Cc1ccc(NC(=O)OCc2ccc(Cl)cc2)cc1)C(=O)N1CCC1 [Compound 112, 4-chlorobenzyl (4-((N-methylazetidine-1-carboxamido)methyl)phenyl)carbamate]
AC1.4 Human: 0.93 µM
EC50: 5.53 µM

O=C(Nc1ccc(C2CCN(CC(F)F)CC2)cc1)OCc1cnco1 [Compound 113, 1,3-oxazol-5-ylmethyl N-{4-[1-(2,2-difluoroethyl)piperidin-4-yl]phenyl}carbamate]
AC1.4 Human: 0.94 µM
EC50: 51 µM

Cc1ccc(Cc2ccc(NC(=O)OCc3cncs3)cc2)cn1 [Compound 114, thiazol-5-ylmethyl (4-((6-methylpyridin-3-yl)methyl)phenyl)carbamate]
AC1.4 Human: 0.94 µM
EC50: 19.7 µM

CC(=O)N1CCC(Cc2ccc(NC(=O)OCc3ccncc3)cc2)CC1 [Compound 115, pyridin-4-ylmethyl (4-((1-acetylpiperidin-4-yl)methyl)phenyl)carbamate]
AC1.4 Human: 0.94 µM
EC50: 3.13 µM
